Test results: patent publication US4517311A, “2'-Substituted-spiro[benzofuran-2(3H),1'-cycloalkanes] and their analgesic and anti-depressant compositions” (Hoechst-Roussel Pharmaceuticals Inc., priority 1982, dated 1985)
Where a name gives a salt, the structure may show the parent alone. Read-outs that look alike come from different tables or passages of the source.

Columns and labels:
[1] = tested on: tetrabenazine-induced depression in mice; experiment: Antidepressant activity (inhibition of tetrabenazine induced ptosis / tetrabenazine-induced depression); format: in vivo; conditions: for ED50: Mus musculus
Description: (§1) The antidepressant and analgesic activities of various spiro compounds having the formula [drawing 32] where X is hydrogen, chlorine or bromine and m is 1 or 2, taken as representative of a lower class of compounds having the formula I are presented in Table 1. The data presented therein were determined in accordance with the above described procedures.
1. Antidepressant activity (as measured by inhibition of
tetrabenazine induced ptosis).
3. Anti-depressant activity (as measured by inhibition
tetrabenazine induced ptosis)

[2] = tested on: phenylquinone writhing in mice; experiment: Analgesic activity (phenylquinone writhing test); format: in vivo, male, CD-1 mice; conditions: for % Inhibition (analgesic activities, phenylquinone writhing test): 20 mg/kg, subcutaneously (sc), Table 1 part 4; for ED50: Mus musculus, sc, Table 1 part 2, estimated by computer linear regression analysis
Description: This produces a characteristic "writhe" which is defined as an inward rotation of one or more feet with twisting and turning of the trunk, drawing in of the abdominal wall, lordosis and arching of the back.
A total of 28 male, CD-1 mice (18 to 30 grams) are employed for a time response. Animals receive food and water ad libitum. Drugs to be tested are prepared with distilled water, and if insoluble, one drop of a suitable surfactant is added.
Twenty animals (5/group) are administered the drug subcutaneously (sc) 15, 30, 45 and 60 minutes prior to phenylquinone injection. Control animals (2/group) receive an equal amount of vehicle. After the administration of phenylquinone, the mice are placed separately into one-liter beakers and 5 minutes are allowed to elapse. The mice are then observed for a period of 10 minutes and the number of writhes are recorded for each animal. The formula for computing percent inhibition is: [formula]
The time period with the greatest percent of inhibition is considered the peak time.
A dose range is run in the same fashion as a time response except ten animals per group are tested at the peak time of drug activity. Fifty animals, four drug groups, and a vehicle control are employed. Animals are dosed and tested in a randomized manner. An estimated ED50 is calculated by a computer linear regression analysis.
as §1
2. Analgesic activities (as measured in the
phenylquinone writhing test).

[3] = po, Table 1 part 1, read-out: ED50 (antidepressant activity, inhibition of tetrabenazine induced ptosis)

SMILES | ED50 [1, 3] | also measured
CN(C)C[C@@H]1CCC[C@@]12Cc1ccccc1O2 (relative stereo) [(1'β,2'β)-2'-dimethylaminomethylspiro[benzofuran-2(3H),1'-cyclopentane]hydrochloride] | – | % Inhibition (anti-depressant activity, inhibition of tetrabenazine induced ptosis) ([1]; 20 mg/kg intraperitoneal, Table 1 part 3): 53%; % Inhibition (analgesic activities, phenylquinone writhing test) [2]: 37%
CN(C)C[C@@H]1CCCC[C@@]12Cc1cc(Cl)c(Cl)cc1O2 (relative stereo) [5,6-dichloro Me cis 1, (1'β,2'β)-2'-Dimethylaminomethylspiro[5,6-dichlorobenzofuran-2(3H),1'-cyclohexane]Hydrochloride] | 3.46 mg/kg | –
CN(C)C[C@@H]1CCCC[C@@]12Cc1cc(Br)ccc1O2 (relative stereo) [5-bromo Me cis 1, (1'β,2'β)-2'-Dimethylaminomethylspiro[5-bromobenzofuran-2(3H),1'-cyclohexane]Hydrochloride] | 4.73 mg/kg | –
CN(C)C[C@@H]1CCCC[C@]12Cc1ccccc1O2 (relative stereo) [H Me trans 1, (1'β,2'β)-2'-Dimethylaminomethylspiro[benzofuran-2(3H),1'-cyclohexane]Hydrochloride] | 3 mg/kg | ED50 [2]: 2.9 mg/kg
CN(C)C[C@@H]1CCCC[C@]12Cc1cc(Cl)ccc1O2 (relative stereo) [5-chloro Me trans 1, (1'α,2'β)-2'-Dimethylaminomethylspiro[5-chlorobenzofuran-2(3H),1'-cyclohexane]Hydrochloride] | 1.39 mg/kg | –
CCN(CC)C[C@@H]1CCCC[C@@]12Cc1cc(Cl)ccc1O2 (relative stereo) [5-chloro Et cis 1, (1'β,2'β)-2'-Diethylaminomethylspiro[5-chlorobenzofuran-2(3H),1'-cyclohexane]Hydrochloride] | 4.73 mg/kg | –
CN(C)C[C@@H]1CCCC[C@]12Cc1c(Cl)cccc1O2 (relative stereo) [4-chloro Me trans 1, (1'α2'β)-2'-Dimethylaminomethylspiro[4-chlorobenzofuran-2(3H),1'-cyclohexane]Hydrochloride] | 5.7 mg/kg | –
CN(C)C[C@@H]1CCC[C@@]12Cc1cc(Br)ccc1O2 (relative stereo) [(1'β,2'β)-2'-dimethylaminomethylspiro[5-bromobenzofuran-2(3H),1'-cyclopentane]hydrochloride] | – | ED50 ([1]; (po) [orally], Table 1 part 3, read-out: 50% Inhibition (ED50), anti-depressant activity, inhibition of tetrabenazine induced ptosis): 17.3 mg/kg; % Inhibition (analgesic activities, phenylquinone writhing test) [2]: 53%
CN(C)C[C@@H]1CCCC[C@@]12Cc1ccccc1O2 (relative stereo) [H Me cis 1, (1'β,2'β)-2'-Dimethylaminomethylspiro[benzofuran-2(3H),1'-cyclohexane]Hydrochloride] | – | ED50 [2]: 5.98 mg/kg
CN(C)C[C@@H]1CCCC[C@]12Cc1ccc(Cl)cc1O2 (relative stereo) [6-chloro Me trans 1, (1'α,1'β)-2'-Dimethylaminomethylspiro[6-chlorobenzofuran-2(3H),1'-cyclohexane]Hydrochloride] | 0.42 mg/kg | –
CN(C)C[C@@H]1CCC[C@@]12Cc1cc(Cl)ccc1O2 (relative stereo) [(1'β,2'β)-2'-dimethylaminomethylspiro[5-chlorobenzofuran-2(3H),1'-cyclopentane]hydrochloride] | – | % Inhibition (analgesic activities, phenylquinone writhing test) [2]: 40%
CN(C)C[C@@H]1CCCC[C@@]12Cc1cc(Cl)ccc1O2 (relative stereo) [5-chloro Me cis 1, (1'β,2'β)-2'-Dimethylaminomethylspiro[5-chlorobenzofuran-2(3H),1'-cyclohexane]Hydrochloride] | 1.5 mg/kg | ED50 [2]: 4.96 mg/kg
